According to ChEMBL document CHEMBL5096214, “Discovery of a new class of valosine containing protein (VCP/P97) inhibitors for the treatment of colorectal cancer” (Bioorg Med Chem, 2022):
The source made the active and inactive calls. The rule behind the calls is not given here.

Columns and labels:
HCT-116 [1] = assay: Anti-proliferative activity against human HCT-116 cells assessed as inhibition of cell proliferation incubated for 72 hrs by CellTiter-Glo luminescent assay; assay type: functional, cell-based; conditions: HCT-116, 72 h
[2] = target: Transitional endoplasmic reticulum ATPase (Homo sapiens, UniProt P55072); assay: Inhibition of p97 (unknown origin) using ATP as substrate incubated for 60 mins by ADP-Glo reagent based luminescence assay
Chain of Transitional endoplasmic reticulum ATPase (P55072 whole entry): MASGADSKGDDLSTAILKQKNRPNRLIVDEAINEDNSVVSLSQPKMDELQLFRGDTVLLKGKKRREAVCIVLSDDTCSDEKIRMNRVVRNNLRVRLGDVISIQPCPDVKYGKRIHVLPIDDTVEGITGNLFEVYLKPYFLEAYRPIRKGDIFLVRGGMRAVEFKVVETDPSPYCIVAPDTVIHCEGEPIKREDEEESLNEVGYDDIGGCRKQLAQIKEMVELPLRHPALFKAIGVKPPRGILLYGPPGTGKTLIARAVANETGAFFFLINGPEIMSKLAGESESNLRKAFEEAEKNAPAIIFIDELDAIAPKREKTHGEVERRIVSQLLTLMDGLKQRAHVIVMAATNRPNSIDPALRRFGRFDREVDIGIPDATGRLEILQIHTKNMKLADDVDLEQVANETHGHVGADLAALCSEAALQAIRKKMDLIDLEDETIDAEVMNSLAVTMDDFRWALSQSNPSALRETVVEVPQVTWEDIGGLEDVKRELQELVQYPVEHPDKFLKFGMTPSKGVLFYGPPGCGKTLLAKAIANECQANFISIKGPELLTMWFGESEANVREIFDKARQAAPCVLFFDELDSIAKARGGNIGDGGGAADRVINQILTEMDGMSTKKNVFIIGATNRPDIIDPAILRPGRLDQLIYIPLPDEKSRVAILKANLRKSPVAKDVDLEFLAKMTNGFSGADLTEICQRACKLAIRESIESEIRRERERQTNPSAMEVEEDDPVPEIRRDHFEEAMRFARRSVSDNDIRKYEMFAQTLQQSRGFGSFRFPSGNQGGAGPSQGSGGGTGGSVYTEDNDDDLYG

[3] = MRT in Sprague-Dawley rat at 1 mg/kg, iv measured for 24 hrs by LC-MS/MS analysis; assay type: ADME, organism-based; conditions: in vivo
[4] = AUC (0 to t) in Sprague-Dawley rat at 10 mg/kg, po measured for 30 hrs by LC-MS/MS analysis; assay type: ADME, organism-based; design: dose 10 mg/kg, time 30 hrs, route po; conditions: in vivo
[5] = Elimination half life in Sprague-Dawley rat at 1 mg/kg, iv measured for 24 hrs by LC-MS/MS analysis; assay type: ADME, organism-based; conditions: in vivo, read-out: beta t1/2 (converted)
[6] = Tmax in Sprague-Dawley rat at 10 mg/kg, po measured for 30 hrs by LC-MS/MS analysis; assay type: ADME, organism-based; conditions: in vivo
[7] = Elimination half life in Sprague-Dawley rat at 10 mg/kg, po measured for 30 hrs by LC-MS/MS analysis; assay type: ADME, organism-based; conditions: in vivo, read-out: beta t1/2 (converted)
[8] = AUC (0 to t) in Sprague-Dawley rat at 1 mg/kg, iv measured for 24 hrs by LC-MS/MS analysis; assay type: ADME, organism-based; design: time 24 hrs, dose 1 mg/kg, route iv; conditions: in vivo
[9] = Oral bioavailability in Sprague-Dawley rat at 10 mg/kg measured for 30 hrs by LC-MS/MS analysis; assay type: ADME, organism-based; conditions: in vivo
[10] = Cmax in Sprague-Dawley rat at 10 mg/kg, po measured for 30 hrs by LC-MS/MS analysis; assay type: ADME, organism-based; design: dose 10 mg/kg, time 30 hrs, route po; conditions: in vivo
[11] = MRT in Sprague-Dawley rat at 10 mg/kg, po measured for 30 hrs by LC-MS/MS analysis; assay type: ADME, organism-based; conditions: in vivo
[12] = AUC (0 to infinity) in Sprague-Dawley rat at 1 mg/kg, iv by LC-MS/MS analysis; assay type: ADME, organism-based; design: time infinity, dose 1 mg/kg, route iv; conditions: in vivo
[13] = AUC (0 to infinity) in Sprague-Dawley rat at 10 mg/kg, po by LC-MS/MS analysis; assay type: ADME, organism-based; design: time infinity, dose 10 mg/kg, route po; conditions: in vivo
[14] = Intrinsic clearance in rat liver microsomes at 1 uM in presence of beta-NADPH measured for 60 mins by LC-MS/MS analysis; assay type: ADME, Microsome; conditions: read-out: CLH
[15] = Intrinsic clearance in mouse liver microsomes at 1 uM in presence of beta-NADPH measured for 60 mins by LC-MS/MS analysis; assay type: ADME, Microsome; conditions: read-out: CLH
[16] = Half life in rat liver microsomes at 1 uM in presence of beta-NADPH measured for 60 mins by LC-MS/MS analysis; assay type: ADME, Microsome
HCT-116 [17] = assay: Anti-tumor activity against human HCT-116 cells xenografted in BALB/c mouse assessed as reduction in tumor volume at 100 mg/kg, po qd for 21 days; assay type: functional, organism-based; conditions: time 21.0 day
[18] = Half life in monkey liver microsomes at 1 uM in presence of beta-NADPH measured for 60 mins by LC-MS/MS analysis; assay type: ADME, Macaca mulatta, Microsome; conditions: rhesus monkey
[19] = Toxicity in BALB/c mouse xenografted with human HCT-116 cells assessed as side effects at 100 mg/kg, po qd for 21 days; assay type: organism-based; conditions: in vivo, 504 h, time 21 day
[20] = Toxicity in BALB/c mouse xenografted with human HCT-116 cells assessed as body weight loss at 100 mg/kg, po qd for 21 days; assay type: organism-based; conditions: in vivo, 504 h, time 21 day
[21] = Half life in human liver microsomes at 1 uM in presence of beta-NADPH measured for 60 mins by LC-MS/MS analysis; assay type: ADME, Microsome
[22] = Half life in dog liver microsomes at 1 uM in presence of beta-NADPH measured for 60 mins by LC-MS/MS analysis; assay type: ADME, Canis lupus familiaris, Microsome
[23] = Intrinsic clearance in dog liver microsomes at 1 uM in presence of beta-NADPH measured for 60 mins by LC-MS/MS analysis; assay type: ADME, Canis lupus familiaris, Microsome; conditions: read-out: CLH
[24] = Intrinsic clearance in human liver microsomes at 1 uM in presence of beta-NADPH measured for 60 mins by LC-MS/MS analysis; assay type: ADME, Microsome; conditions: read-out: CLH
[25] = Intrinsic clearance in monkey liver microsomes at 1 uM in presence of beta-NADPH measured for 60 mins by LC-MS/MS analysis; assay type: ADME, Macaca mulatta, Microsome; conditions: rhesus monkey, read-out: CLH
[26] = Cmax in Sprague-Dawley rat at 1 mg/kg, iv measured for 24 hrs by LC-MS/MS analysis; assay type: ADME, organism-based; design: dose 1 mg/kg, time 24 hrs, route iv; conditions: in vivo
[27] = Half life in mouse liver microsomes at 1 uM in presence of beta-NADPH measured for 60 mins by LC-MS/MS analysis; assay type: ADME, Microsome
[28] = Tmax in Sprague-Dawley rat at 1 mg/kg, iv measured for 24 hrs by LC-MS/MS analysis; assay type: ADME, organism-based; conditions: in vivo
[29] = Toxicity in BALB/c mouse xenografted with human HCT-116 cells assessed as side effects at 100 mg/kg, po measured on day 4; assay type: organism-based; conditions: in vivo, 96 h, time 4 day
[30] = Toxicity in BALB/c mouse xenografted with human HCT-116 cells assessed as body weight loss at 50 mg/kg, po qd for 21 days; assay type: organism-based; conditions: in vivo, 504 h, time 21 day
[31] = Toxicity in BALB/c mouse xenografted with human HCT-116 cells assessed as body weight loss at 100 mg/kg, po measured on day 4; assay type: organism-based; conditions: in vivo, 96 h, time 4 day
[32] = Toxicity in BALB/c mouse xenografted with human HCT-116 cells assessed as animals death at 100 mg/kg, po measured on day 8; assay type: organism-based; conditions: in vivo, 192 h, time 8 day
[33] = Toxicity in BALB/c mouse xenografted with human HCT-116 cells assessed as side effects at 50 mg/kg, po qd for 21 days; assay type: organism-based; conditions: in vivo, 504 h, time 21 day

C=CC(=O)Nc1cccc2c1cc(C)n2-c1nc2c(c(NCc3cccc(O)c3)n1)CCC2
IC50 (HCT-116 [1]): 1200 nM
IC50 [2]: 26 nM

Cc1cc2c(C(=N)NO)cccc2n1-c1nc2c(c(NCc3cccc(O)c3)n1)CCC2
IC50 (HCT-116 [1]): 1100 nM
IC50 [2]: 35 nM

Cc1cc2c(NC(=O)c3ccco3)cccc2n1-c1nc2c(c(NCc3cccc(O)c3)n1)CCC2
IC50 (HCT-116 [1]): 1200 nM
IC50 [2]: 49 nM

Cc1cc2c(NC(=O)c3cccs3)cccc2n1-c1nc2c(c(NCc3cccc(O)c3)n1)CCC2
IC50 [2]: 185 nM

Cc1cc2c(NC(=O)c3cscn3)cccc2n1-c1nc2c(c(NCc3cccc(O)c3)n1)CCC2
IC50 [2]: 216 nM

COc1ccc(/C=C/C(=O)Nc2cccc3c2cc(C)n3-c2nc3c(c(NCc4cccc(O)c4)n2)CCC3)cc1
IC50 [2]: 2470 nM

Cc1cc2c(C(N)=O)cccc2n1-c1nc2c(c(NCc3cccc(N)c3)n1)CCC2
IC50 [2]: 154 nM

CON(C)C(=O)c1cccc2c1cc(C)n2-c1nc2c(c(NCc3cccc(B(O)O)c3)n1)CCC2
IC50 [2]: 1220 nM

CCONC(=O)c1cccc2c1cc(C)n2-c1nc2c(c(NCc3cccc(B(O)O)c3)n1)CCC2
IC50 (HCT-116 [1]): 1400 nM
IC50 [2]: 72 nM

CCONC(=O)c1cccc2c1cc(C)n2-c1nc2c(c(NCc3cccc(O)c3)n1)CCC2
IC50 (HCT-116 [1]): 600 nM
IC50 [2]: 31 nM

C/C=C/C(=O)Nc1cccc2c1cc(C)n2-c1nc2c(c(NCc3cccc(O)c3)n1)CCC2
IC50 (HCT-116 [1]): 2400 nM
IC50 [2]: 96 nM

Cc1cc2c(C(=N)N)cccc2n1-c1nc2c(c(NCc3cccc(O)c3)n1)CCC2
IC50 [2]: 233 nM

CONC(=O)c1cccc2c1cc(C)n2-c1nc2c(c(NCc3cccc(B(O)O)c3)n1)CCC2
IC50 (HCT-116 [1]): 1000 nM
IC50 [2]: 54 nM

Cc1cc2c(NC(=O)/C=C/c3ccccc3)cccc2n1-c1nc2c(c(NCc3cccc(O)c3)n1)CCC2
IC50 [2]: 3510 nM

CONC(=O)c1cccc2c1cc(C)n2-c1nc2c(c(NCc3cccc(O)c3)n1)CCC2
IC50 (HCT-116 [1]): 300 nM
MRT [3]: 73.8 min
AUC(0-t) at 30 h [4]: 108 ng·h/mL
half-life [5]: 50.4 min
IC50 [2]: 48 nM
Tmax [6]: 30 min
half-life [7]: 153 min
AUC(0-t) at 24 h [8]: 94.8 ng·h/mL
bioavailability [9]: 11.1%
Cmax [10]: 52.5 ng/mL
MRT [11]: 201 min
AUC(0-inf) [12]: 108 ng·h/mL
AUC(0-inf) [13]: 121 ng·h/mL

Cc1cc2c(NS(C)(=O)=O)cccc2n1-c1nc2c(c(NCc3cccc(O)c3)n1)CCC2
IC50 (HCT-116 [1]): 800 nM
IC50 [2]: 97 nM

Cc1cc2c(C(N)=O)cccc2n1-c1nc2c(c(NCc3cccc(O)c3)n1)CCC2
microsomal CLint at 1 µM [14]: 132 µL/min/mg
microsomal CLint at 1 µM [15]: 48.2 µL/min/mg
half-life at 1 µM [16]: 10.5 min
Activity (HCT-116 [17]): Active
half-life at 1 µM [18]: 23.8 min
Activity [19]: Non-Toxic
IC50 (HCT-116 [1]): 400 nM
Activity [20]: Non-Toxic
half-life at 1 µM [21]: 37.1 min
half-life at 1 µM [22]: 34.8 min
MRT [3]: 67.2 min
AUC(0-t) at 30 h [4]: 283 ng·h/mL
half-life [5]: 168 min
IC50 [2]: 53 nM
Tmax [6]: 30 min
microsomal CLint at 1 µM [23]: 39.8 µL/min/mg
half-life [7]: 228 min
microsomal CLint at 1 µM [24]: 37.4 µL/min/mg
AUC(0-t) at 24 h [8]: 142 ng·h/mL
bioavailability [9]: 23.5%
Cmax [10]: 130 ng/mL
MRT [11]: 276 min
microsomal CLint at 1 µM [25]: 58.2 µL/min/mg
AUC(0-inf) [12]: 147 ng·h/mL
Cmax [26]: 284 ng/mL
half-life at 1 µM [27]: 28.8 min
AUC(0-inf) [13]: 345 ng·h/mL
Tmax [28]: 4.8 min

CON(C)C(=O)c1cccc2c1cc(C)n2-c1nc2c(c(NCc3cccc(O)c3)n1)CCC2
IC50 [2]: 863 nM

Cc1cc2c(C(N)=O)cccc2n1-c1nc2c(c(NCc3ccccc3)n1)CCCN2
microsomal CLint at 1 µM [14]: 318 µL/min/mg
microsomal CLint at 1 µM [15]: 176 µL/min/mg
half-life at 1 µM [16]: 7.9 min
half-life at 1 µM [18]: 9.8 min
IC50 (HCT-116 [1]): 700 nM
Activity [29]: Toxic
Activity [30]: Non-Toxic
Activity [31]: Toxic
half-life at 1 µM [21]: 35.9 min
half-life at 1 µM [22]: 33 min
MRT [3]: 25.2 min
AUC(0-t) at 30 h [4]: 779 ng·h/mL
Activity [32]: Toxic
half-life [5]: 22.8 min
IC50 [2]: 44 nM
Tmax [6]: 30 min
microsomal CLint at 1 µM [23]: 60 µL/min/mg
Activity [33]: Non-Toxic
half-life [7]: 73.8 min
microsomal CLint at 1 µM [24]: 36.5 µL/min/mg
AUC(0-t) at 24 h [8]: 390 ng·h/mL
bioavailability [9]: 20%
Cmax [10]: 444 ng/mL
MRT [11]: 96 min
microsomal CLint at 1 µM [25]: 203 µL/min/mg
AUC(0-inf) [12]: 398 ng·h/mL
half-life at 1 µM [27]: 19.1 min
AUC(0-inf) [13]: 796 ng·h/mL
